Laboratory results taken from ChEMBL document CHEMBL3352486, “Design, synthesis and biological evaluation of metronidazole-thiazole derivatives as antibacterial inhibitors” (Bioorg Med Chem Lett, 2014).
Values after ≈ are worked out from the molar mass of the structure shown.

Columns and labels:
Escherichia coli = assay: Antibacterial activity against Escherichia coli after 24 hrs by MTT method; format: functional, organism-based
Pseudomonas aeruginosa = assay: Antibacterial activity against Pseudomonas aeruginosa after 24 hrs by MTT method; format: functional, organism-based
Bacillus thuringiensis = assay: Antibacterial activity against Bacillus thuringiensis after 24 hrs by MTT method; format: functional, organism-based
Bacillus subtilis = assay: Antibacterial activity against Bacillus subtilis after 24 hrs by MTT method; format: functional, organism-based
[1] = target: T1, Beta-ketoacyl-[acyl-carrier-protein] synthase III (Escherichia coli K-12, UniProt P0A6R0); assay: Inhibition of Escherichia coli FabH
T1 sequence (P0A6R0 whole entry): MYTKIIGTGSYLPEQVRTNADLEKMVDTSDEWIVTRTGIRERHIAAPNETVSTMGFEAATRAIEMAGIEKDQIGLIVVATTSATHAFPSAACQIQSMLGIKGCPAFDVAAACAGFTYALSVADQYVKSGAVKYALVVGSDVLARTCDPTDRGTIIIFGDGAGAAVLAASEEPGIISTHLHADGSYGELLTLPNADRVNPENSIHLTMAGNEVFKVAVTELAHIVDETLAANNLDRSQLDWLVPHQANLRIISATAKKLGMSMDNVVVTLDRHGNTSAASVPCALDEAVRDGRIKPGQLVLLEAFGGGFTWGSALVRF

[2] = Cytotoxicity against human macrophages assessed as drug level causing microscopically detectable alteration in normal cell morphology after 24 hrs by MTT assay; format: cell-based, Macrophage

Compound | IC50 (Escherichia coli) [µg/mL] | IC50 (Pseudomonas aeruginosa) [µg/mL] | IC50 (Bacillus thuringiensis) [µg/mL] | IC50 (Bacillus subtilis) [µg/mL] | IC50 [1] [µM] | CC50 at 24 h [2] [µg/mL]
Cc1ncc([N+](=O)[O-])n1CCOc1ccc(/C=N/Nc2nc(-c3ccccc3)cs2)cc1 | 38.3 (≈ 85.4 µM) | 38.2 (≈ 85.2 µM) | 15.5 (≈ 34.6 µM) | 13.1 (≈ 29.2 µM) | 5.2 | 467
Cc1ncc([N+](=O)[O-])n1CCOc1cccc(/C=N\NC(N)=S)c1 | 89.7 (≈ 257 µM) | 85.6 (≈ 246 µM) | 78.6 (≈ 226 µM) | 96.3 (≈ 276 µM) | – | –
Cc1ncc([N+](=O)[O-])n1CCOc1ccc(/C=N/Nc2nc(-c3ccc(C(F)(F)F)cc3)cs2)cc1 | 41.2 (≈ 79.8 µM) | 98 (≈ 190 µM) | 78.8 (≈ 153 µM) | 32.8 (≈ 63.5 µM) | 7.2 | 218
COc1ccc(-c2csc(N/N=C/c3cccc(OCCn4c([N+](=O)[O-])cnc4C)c3)n2)cc1 | 28.8 (≈ 60.2 µM) | 10.8 (≈ 22.6 µM) | 5.9 (≈ 12.3 µM) | 1.9 (≈ 3.97 µM) | 9.2 | 238
Cc1ncc([N+](=O)[O-])n1CCOc1ccc(/C=N/Nc2nc(-c3ccccc3Br)cs2)cc1 | 26.9 (≈ 51 µM) | 20.6 (≈ 39.1 µM) | 88.4 (≈ 168 µM) | 27.6 (≈ 52.3 µM) | 4.9 | 322
COc1ccc(-c2csc(N/N=C/c3ccc(OCCn4c([N+](=O)[O-])cnc4C)cc3)n2)cc1 | 50.8 (≈ 106 µM) | 6.3 (≈ 13.2 µM) | 26.2 (≈ 54.8 µM) | 19.4 (≈ 40.5 µM) | 6.1 | 268
Cc1ncc([N+](=O)[O-])n1CCOc1cccc(/C=N/Nc2nc(-c3ccccc3)cs2)c1 | 48.6 (≈ 108 µM) | 21.6 (≈ 48.2 µM) | 53.7 (≈ 120 µM) | 118 (≈ 264 µM) | 8.6 | –
Cc1ncc([N+](=O)[O-])n1CCOc1cccc(/C=N/Nc2nc(-c3ccc(Br)cc3)cs2)c1 | 98.3 (≈ 186 µM) | 83.9 (≈ 159 µM) | 98 (≈ 186 µM) | 117 (≈ 223 µM) | 20.8 | –
NC[C@H]1O[C@H](O[C@H]2[C@H](O)[C@@H](O[C@H]3O[C@H](CO)[C@@H](O)[C@H](N)[C@H]3O)[C@H](N)C[C@@H]2N)[C@H](O)[C@@H](O)[C@@H]1O [KANAMYCIN] | 46.3 (≈ 95.6 µM) | – | – | – | 6.8 | –
Cc1ncc([N+](=O)[O-])n1CCOc1cccc(/C=N/Nc2nc(-c3ccccc3Br)cs2)c1 | 75.2 (≈ 143 µM) | 67.7 (≈ 128 µM) | 58.7 (≈ 111 µM) | 15.5 (≈ 29.4 µM) | 36.2 | –
Cc1ncc([N+](=O)[O-])n1CCOc1ccc(/C=N/Nc2nc(-c3ccc(Br)cc3)cs2)cc1 | 43.3 (≈ 82.1 µM) | 85.3 (≈ 162 µM) | 66.9 (≈ 127 µM) | 98.8 (≈ 187 µM) | 6.2 | –
Cc1ncc([N+](=O)[O-])n1CCOc1cccc(/C=N/Nc2nc(-c3ccc(C(F)(F)F)cc3)cs2)c1 | 48.8 (≈ 94.5 µM) | 3.6 (≈ 6.97 µM) | 73 (≈ 141 µM) | 3.7 (≈ 7.16 µM) | 13.5 | 517
Cc1ncc([N+](=O)[O-])n1CCOc1ccc(/C=N\NC(N)=S)cc1 | 111 (≈ 318 µM) | 98.3 (≈ 282 µM) | 88.4 (≈ 254 µM) | 103 (≈ 296 µM) | – | –
